Data: patent publication US9958451B2, “Near-infrared fluorescent dyes with large stokes shifts” (Portland State University, priority 2011, dated 2018)
Like-named read-outs stand apart in the source and are kept apart here.

Key:
[1] = Effect of pH / ionization on spectra; type: physicochemical
Excerpt: There are through-space polar interactions between R^18 and the internal bridge oxygen in compounds according to general formulas III, IX, and X. The field effect is further enhanced in the case of symmetric compounds, such as those according to general formula IV when R^19 is oxygen. A unique intramolecular hydrogen-bonding network also is present in such compounds, e.g., compound 8 (FIG. 25). This network produces enhanced negative charge density on the ionizable oxygen atoms, thereby promoting a relatively large bathochromic shift. […] The hydrogen bonding can be seen in compounds such as compound 8 by ^1H NMR spectroscopy. A redistribution of the electronic density around the hydrogen atom occurs upon hydrogen bond formation between the hydroxyl proton, the carbonyl, and the central oxygen of compound 8. […] Evidence of hydrogen bonding was also seen in compound 15a, but to a lesser degree. In compound 15a, the total hydrogen bond distance O—H—O between the hydroxyl at the R^18 position and the xanthene central oxygen is 2.95 Å, which falls in range of common hydrogen bonds.
Known seminaphthorhodafluors display long wavelength absorption at high pH; however, the free amino compound in this series respond to low pH with increased long wavelength absorption.

[2] = Spectral properties of rhodamine bis-boronic acids and precursors in DMSO:buffer; type: physicochemical
Method: Characterization: The spectral properties of compounds 50-53 were determined. Absorption and fluorescence spectra of solutions of the rhodamine bis-boronic acids 51 and 53, and their respective precursors 50 and 52, are shown in FIGS. 27A-C (in DMSO:buffer 1:9) and 27D-F (DMSO:buffer 1:1). […] Excitation and emission spectra were normalized to their absorbance at the excitation wavelength, and are proportional to quantum yield.

[3] = 10 mM HEPES, pH 7.5, 15% (v/v) EtOH, Leytus et al., cited from earlier work
[4] = UV-visible absorbance spectroscopy, 15 μM in 90% aqueous, 10% DMSO; type: physicochemical; details: for Red shift of absorption spectra from 3-1 transposition versus known regiochemistry: depending on the ionization state
Method: Compounds 21 and 7 were characterized by UV-visible spectroscopy (FIG. 15). Absorbance was measured using 15 μM solutions of each compound in a solution that was 90% aqueous, 10% DMSO. The peaks at 600 nm (light dashed line) and 675 nm (light solid line) represent the dianions of compounds 21 and 7, respectively, in NaOH (pH 12). The peaks at 590 nm (heavy dashed line) and 650 nm (heavy solid line) represent a mix of mono- and dianions of compound 21 at pH 7.4 and predominantly monoanions of compound 7 at pH 9, respectively.
Compounds 22 and 8 were characterized by UV-visible spectroscopy (FIG. 16). Absorbance was measured using 15 μM solutions of each compound in a solution that was 90% aqueous, 10% DMSO. The peaks at 610 nm (light dashed line) and 685 nm (light solid line) represent the anions of compounds 22 and 8, respectively, in NaOH (pH 12). The peaks at 605 nm (heavy dashed line) and 805 nm (heavy solid line) represent the neutral forms of compounds 22 and 8 at pH 7.4, respectively.
Compounds 20a and 15a were characterized by UV-visible spectroscopy (FIG. 17). Absorbance was measured using 15 μM solutions of each compound in a solution that was 90% aqueous, 10% DMSO. The peaks at 545 nm (light dashed line) and 595 nm (light solid line) represent the respective anions, compounds 20c and 15h, in NaOH (pH 12).
Compound 15b (free amino) was characterized by UV-visible spectroscopy (FIG. 18), and compared to C.SNARF-5 (literature, SNARF=seminaphthorhodafluor). Absorbance was measured using a 15 μM solution of compound 15b in a solution that was 90% aqueous, 10% DMSO. The peak at 535 nm (heavy line) represents the predominantly phenolic form of 15b at pH 6. The peak at 615 nm (light line) represents the phenoxide of compound 15b at in NaOH (pH12). In comparison, C.SNARF-5 produces a peak at 550 nm (anionic form) and a peak at 485 nm (neutral form) (Whitaker et al., Anal. Biochem. 1991, 194, 330-344).
Absorbance was measured using 15 μM solutions of compound 15d in a solution that was 90% aqueous, 10% DMSO. The peak at 570 nm (heavy line) represents the predominantly neutral form of 15d at pH 6. The peak at 630 nm (light line) represents the phenoxide of compound 15d in NaOH (pH 12).
Compounds 20b and 15g were characterized by UV-visible spectroscopy (FIG. 20). Absorbance was measured using 15 μM solutions of each compound in a solution that was 90% aqueous, 10% DMSO. The peaks at 540 nm (dashed line) and 570 nm (solid line) represent the cations of compounds 20b and 15g, respectively, at pH 7.4.

[5] = Fluorescence emission spectra, 15 μM in 90% aqueous, 10% DMSO; type: physicochemical; details: for Red-shifted emission from 3-1 transposition versus known regiochemistry: longest wavelength-emitting species
Method: Compounds 21 and 7 also were characterized by their fluorescence emission spectra. Fluorescence was measured using 15 μM solutions of each compound in a solution that was 90% aqueous, 10% DMSO. For compound 21, the longest wavelength emission observed from the dianions occurred near 680 nm at pH 9. For compound 7 (transposed), the longest wavelength emission observed from the monoanion occurred near 800 nm at pH 9.
Compounds 22 and 8 also were characterized by their fluorescence emission spectra. Fluorescence was measured using 15 μM solutions of each compound in a solution that was 90% aqueous, 10% DMSO For compound 22, the longest wavelength emission observed from the anion occurred near 690 nm at pH 9. […] Given the greater than 800 nm absorbance peak and the typically large Stokes shifts observed in this class of compounds, it is likely that the emission was beyond the working range of the instrument (>850 nm).
Compounds 20 and 15a also were characterized by their fluorescence emission spectra. Fluorescence was measured using 15 μM solutions of each compound in a solution that was 90% aqueous, 10% DMSO. For compound 20a, the longest wavelength emission observed from its corresponding anion, compound 20c, occurred near 640 nm in NaOH (pH 12). For compound 15a (transposed), the longest wavelength emission observed from the corresponding anion, compound 15h, occurred near 760 nm in NaOH.
Compound 15b also was characterized by its fluorescence emission spectrum and compared to C.SNARF-5. Fluorescence was measured using a 15 μM solution of compound 15b in a solution that was 90% aqueous, 10% DMSO. For C.SNARF-5, the longest wavelength emission observed from the anion occurred near 632 nm (Whitaker et al., Anal. Biochem. 1991, 194, 330-344). For compound 15b (transposed), the longest wavelength emission observed from the phenoxide occurred near 770 nm.
Fluorescence was measured using a 15 μM solution of compound 15d in a solution that was 90% aqueous, 10% DMSO. […] For compound 15d (transposed), the longest wavelength emission observed from the phenoxide occurred near 780 nm (NaOH, pH 12).
Compounds 20b and 15g also were characterized by their fluorescence emission spectra. Fluorescence was measured using 15 μM solutions of each compound in a solution that was 90% aqueous, 10% DMSO. For compound 20b, the longest wavelength emission observed from the cation occurred near 640 nm at pH 7.4. For compound 15g (transposed), the longest wavelength emission observed from the cation occurred near 770 nm at pH 7.4.

[6] = Absorbance and fluorescence in methanol; type: physicochemical
Method: Absorbance and fluorescence of compounds 22 and 8 also were measured in methanol. […] Thus, placement of the hydroxyl group proximal to the xanthene internal oxygen in compound 8 produced a bathochromic shift of 103 nm in the absorption spectrum. The transposition also imparted a corresponding shift in the excitation spectrum, and a large bathochromic shift of 128 nm in the fluorescence emission. Importantly, compound 8 absorbs and emits in the near-infrared with absorption and emission maxima of 701 nm and 816 nm, respectively.
Absorbance and fluorescence of compounds 20a and 15a also were measured in methanol. […] Thus, placement of the hydroxyl group proximal to the xanthene internal oxygen in compound 15a produced a bathochromic shift of 15 nm in the absorbance spectrum. The transposition also imparted a corresponding shift in the excitation spectrum, and a large bathochromic shift of 32 nm in the fluorescence emission.

[7] = Emission in blood (whole porcine blood in buffer)
Method: Compound 15d (Table 1) was diluted to 40 μM in 50% DMSO:50% 25 mM pH 9 phosphate buffer. […] Emission remained stable for at least 1 hr. The absorption profile matches the output of a laser pointer (635-670 nm; max output <5 mW).
Its absorbance and fluorescence spectra faded over time, but remained visible after about an hour (although with only 10-20% of its original emission intensity). Molecular modeling has shown favorable structural interactions of compounds 5f and 24 with glutathione (FIG. 12—compound 24).
Spectral behavior of compound 15g (type [c] annulated seminaphtho-rhodamine methyl ester (free amine) with the 3-1 transposition) was investigated to determine its potential for sensing use in whole blood. Solutions of compound 15g in 10% or 90% by volume whole blood (porcine blood in Na-EDTA, Lampire Biological Laboratories) were investigated in a 3×3 mm cell. The fluorophore was first dissolved in 50 mM, pH 7.4 phosphate buffer to ensure complete dissolution, and in the case of 90% whole blood, this stock solution was mixed with whole blood in a 1:9 ratio. In the case of 10% whole blood, 1 part whole blood was added to 9 parts of an appropriately diluted (with deionized water) solution of compound 15g stock. In both cases, the final concentration of compound 15g was 150 μM with a final phosphate buffer concentration of 5 mM. […] Throughout much of the spectrum, the dye produces a greater absorbance than the blood alone. The change in absorbance between the two spectra provides the effective absorbance of the dye. […] The broad absorption and large Stokes shift of this dye allows significant excitation with greater than 50% efficiency at wavelengths beyond that of the major hemoglobin peaks in blood.

[8] = NaOH (pH 12), anionic/phenoxide form, 90% aqueous 10% DMSO
[9] = 40 μM in 50% DMSO:50% 25 mM pH 9 phosphate buffer

With `Cc1ccc(C)c(-c2c3ccc4cccc(O)c4c3oc3c2ccc2cccc(=O)c23)c1` [Compound 10, 7-(2,5-dimethylphenyl)-13-hydroxy-1H-dibenzo[c,h]xanthen-1-one] the “Shift of the absorption maximum on deprotonation” value [1] was “hypsochromic”.

Molecule `Cl.N=c1ccc2c(-c3ccccc3C(=O)O)c3ccc(N)cc3oc-2c1` [Rhodamine 110] has an Em ([2]; DMSO:buffer 1:1) of 526 nm, an Ex ([2]; DMSO:buffer 1:1) of 502 nm and a ε ([2]; DMSO:buffer 1:1) of 67905 M⁻¹ cm⁻¹. For the same molecule, the Abs ([2]; DMSO:buffer 1:1, pH 7.4 phosphate buffer 12.5 mM) was 503 nm, the Abs [3] was 495 nm and the Em [3] was 523 nm. For the same molecule, the Q.Y. [3] was 0.91, the Brightness ([3]; @ 492) was 60788 @ 492 and the ε ([3]; @ 492) was 66800 M⁻¹ cm⁻¹.

With `COC(=O)c1ccccc1-c1c2ccc(=O)cc-2oc2c1ccc1cccc(N)c12` [Compound 15e] the “Response of absorption to pH (pH titration)” value [1] was “increased long wavelength absorption and decreased short wavelength absorption at low pH”.

With `COC(=O)c1ccccc1-c1c2ccc3cccc(O)c3c2oc2c1ccc1cccc(=O)c12` [Compound 8] the “Red shift of absorption spectra from 3-1 transposition versus known regiochemistry” value (from here on “Red shift of absorption spectra”) ([4]; 90% aqueous 10% DMSO) was 75-200 nm, the Absorbance peak [4, 8] was 685 nm and the Stokes shift [5] was “unmeasurable”. The “Red-shifted emission from 3-1 transposition versus known regiochemistry” value (from here on “Red-shifted emission”) [5] was “more than 160 nm”, the Longest wavelength emission ([5]; pH not stated) was “emission was not observed” and the Absorption maximum [6] was 701 nm. The “Bathochromic shift in the absorption spectrum versus known regiochemistry” value [6] was 103 nm, the “Bathochromic shift in the fluorescence emission versus known regiochemistry” value [6] was 128 nm and the Emission maximum [6] was 816 nm. The “Shift of the absorption maximum on deprotonation” value [1] was “does not result in a large bathochromic shift” and the “pH up to which NIR fluorescence was observed” value [1] was ≤ 9.

In the case of `O=C1OC2(c3ccccc31)c1ccc3cccc(O)c3c1Oc1c2ccc2cccc(O)c12` [Compound 7], the “Red shift of absorption spectra” value ([4]; 90% aqueous 10% DMSO) is reported as 60-75 nm, the Absorbance peak [4, 8] is reported as 675 nm and the Absorbance peak ([4]; pH 9, predominantly monoanions) is reported as 650 nm. For the same molecule, the Stokes shift [5] was “about 150 nm”, the Longest wavelength emission ([5]; NaOH (pH 12), anion/phenoxide) was “too weak to be detected or, more likely, beyond the working range of the instrument” and the “Red-shifted emission” value [5] was “about 120 nm”. The Longest wavelength emission ([5]; pH 9) was ~800 nm and the “Form below physiological pH of 7.4” value ([1]; 1:9 DMSO:buffer) was “colorless lactone”.

In the case of `COC(=O)c1ccccc1-c1c2ccc(=[N+](C)C)cc-2oc2c1ccc1cccc(O)c12` [Compound 15d], the “Red shift of absorption spectra” value ([4]; 90% aqueous 10% DMSO) is reported as 55-57 nm, the Absorbance peak [4, 8] is reported as 630 nm and the Absorbance peak ([4]; pH 6, predominantly neutral/phenolic form) is reported as 570 nm. For the same molecule, the “Enhancement of the Stokes shift by 3-1 transposition” value [5] was “about 92 nm”, the Stokes shift [5] was “about 150 nm” and the Longest wavelength emission ([5]; NaOH (pH 12), anion/phenoxide) was ~780 nm. The “Red-shifted emission” value [5] was “about 149 nm”, the λmax em [7, 9] was ~790 nm and the λmax ex [7, 9] was ~690 nm. For the same molecule, the “Time emission remained stable” value ([7]; 5% whole blood) was “at least 1 hr” and the “Loss of fluorescence on inclusion of whole blood” value ([7]; final blood concentration 5% by volume) was “only minimal loss of fluorescence”.
